Source: patent US5232923A, “Catechol derivatives and pharmaceutical preparations containing same” (Mitsui Toatsu Chemicals, Incorporated, priority 1988, dated 1993)
Like-named read-outs stand apart in the source and are kept apart here.

Tests used:
[1] = tested on: production and secretion of NGF in mouse L-M cells; test: Promoting activity for the production and secretion of NGF in mouse L-M cells (ELISA of medium after 24 h); format: cell-based; conditions: for fold induction at 200 µM: Mus musculus, 24 h, read-out: NGF Increase Ratio; for NGF Concentration: 24 hours, mean of four determinations
Method: Promoting activity for the production and secretion of NGF in mouse L-M cells
The medium was cultured for 3 days at a temperature of 37° C. […] The sample of the derivative tested is contained in the medium at a prescribed concentration as illustrated in the Tables. […] Data are expressed as fold increase in NGF content of the medium over that cultivated in the absence of the derivative to be tested. […] Data are presented as the mean of four determinations. The results are illustrated in Tables 1-5.

[2] = tested on: production and secretion of NGF in mouse brain astroglial cells; test: Promoting activity for the production and secretion of NGF in mouse brain astroglial cells (ELISA of medium after 24 h); format: cell-based; conditions: for fold induction at 400 µM / fold induction at 200 µM: Mus musculus, 24 h, read-out: NGF Increase Ratio; for NGF Concentration: 24 hours
Method: Promoting activity for the production and secretion of NGF in mouse brain astroglial cells
The experiment was performed by inducing astroglial cells from the mouse forebrain to a culture system according to the procedures of S. Furukawa et al. which is described in Biochem. Biophys. Res. Commun., 136, 57-63 (1986).
Forebrains of 8-days old mice were dissected out and cut into small pieces. The pieces were washed with calcium- and magnesium-free phosphate-bufferedsaline (hereinafter abbreviated as PBS), treated with 0.25% trypsin containing PBS at 37° C. for 30 minutes and triturated with a Pasteur pipet to give a suspension. Cells and cell clumps were recovered by centrifugation at 200 xg for 5 minutes. They were cultured in Dulbecco modified Eagle's medium (a product of Gibco Co. hereinafter abbreviated as DMEM) containing 10% fetal calf serum, 50 μ units/ml of penicillin, and 50 μg/ml of streptomycin, for 10 to 14 days with medium changes every 3 days. After completing confluency, the cells were dissociated by trypsin treatment and recultured in new culture flasks. This procedure was repeated further twice and more. The culture became a uniform cell cluster. The cell cluster for use in this invention can be stained not less than 97% in accordance with the PAP staining method (peroxidase/[…] staining method) using anti-human glial fibrillar acidic protein (GFAP) rabbit antiserum. The cells will hereinafter be referred to as astroglial cells.
Astroglial cells were innoculated in 24-well plates having a well surface area of 2.1 cm^2 (a product of Falcon Co.) at a cell density of about 3×10^4 cells/well and cultured for 3 days in DMEM medium supplemented with 10% of fetal calf serum. After completing confluency about ([…]), the medium was changed to DMEM medium (0.5 ml/well) supplemented with 0.5% of bovine serum albumin (fraction V) and cultured for 3 days. The culture was further continued with medium changes every 3 days. After cells were practically synchronized in the quiscent stage, the medium was changed to 0.5 ml of the same medium and containing a prescribed concentration of test sample as illustrated in the Tables. NGF in the medium after cultivating for 24 hours was determined by the ELISA as mentioned above. Data are expressed as fold increase in NGF content over that in the absence of the test sample. The lower detection limit of the ELISA is 0.25 pg/ml and the NGF content of control medium was normally 1-10 pg/0.5 ml/well. Data are presented as the mean of four determinations. The results are illustrated in Tables 1-5.

[3] = Table 1, L-M cells, sample concentration 0.2 mM, fold increase over control (1.00)
[4] = Table 1, L-M cells, sample concentration 0.2 mM, control 0.33
[5] = Table 3, sample concentration 0.4 mM, fold increase over control (1.00)
[6] = Table 3, sample concentration 0.4 mM, control 42.3
[7] = Table 3, sample concentration 0.2 mM, fold increase over control (1.00)
[8] = Table 3, sample concentration 0.2 mM, control 42.3
[9] = Table 2, L-M cells, sample concentration 0.2 mM, fold increase over control (1.00)
[10] = Table 2, L-M cells, sample concentration 0.2 mM, control 0.34
[11] = Table 4, sample concentration 0.2 mM, fold increase over control
[12] = Table 4, sample concentration 0.2 mM
[13] = Table 4, sample concentration 0.4 mM, fold increase over control
[14] = Table 4, sample concentration 0.4 mM

Structure (SMILES): CC(=O)NCCc1ccc(O)c(O)c1 [Compound 1, N-Acetyl-3,4-dihydroxyphenethylamine]
- fold induction at 200 µM [1, 3]: 9.24
- NGF Concentration [1, 4]: 3.05 ng/well
- fold induction at 400 µM [2, 5]: 4.94
- NGF Concentration [2, 6]: 208.8 ng/well

Structure (SMILES): CCCC(=O)NCCc1ccc(O)c(O)c1 [Compound 3]
- fold induction at 200 µM [1, 3]: 9.64
- NGF Concentration [1, 4]: 3.18 ng/well
- fold induction at 200 µM [2, 7]: 3.66
- NGF Concentration [2, 8]: 155.0 ng/well

Structure (SMILES): CC(=O)NCCCc1ccc(O)c(O)c1 [Compound 7]
- fold induction at 200 µM [1, 3]: 8.52
- NGF Concentration [1, 4]: 2.81 ng/well
- fold induction at 400 µM [2, 5]: 4.46
- NGF Concentration [2, 6]: 188.5 ng/well

Structure (SMILES): CC(=O)N(C)CCc1ccc(O)c(O)c1 [Compound 10]
- fold induction at 200 µM [1, 3]: 9.7
- NGF Concentration [1, 4]: 3.20 ng/well
- fold induction at 400 µM [2, 5]: 4.85
- NGF Concentration [2, 6]: 205.2 ng/well

Structure (SMILES): CCCC(=O)N(C)CCc1ccc(O)c(O)c1 [Compound 12]
- fold induction at 200 µM [1, 3]: 9.15
- NGF Concentration [1, 4]: 3.02 ng/well
- fold induction at 400 µM [2, 5]: 4.89
- NGF Concentration [2, 6]: 206.7 ng/well

Structure (SMILES): CC(=O)NCCc1ccc(OC(C)=O)c(OC(C)=O)c1 [Compound 13, N-Acetyl-3,4-diacetoxyphenethylamine]
- fold induction at 200 µM [1, 3]: 12.2
- NGF Concentration [1, 4]: 4.03 ng/well
- fold induction at 400 µM [2, 5]: 4.7
- NGF Concentration [2, 6]: 198.8 ng/well

Structure (SMILES): CCCC(=O)NCCc1ccc(OC(C)=O)c(OC(C)=O)c1 [Compound 15]
- fold induction at 200 µM [1, 3]: 8.94
- NGF Concentration [1, 4]: 2.95 ng/well
- fold induction at 200 µM [2, 7]: 3.74
- NGF Concentration [2, 8]: 158.2 ng/well

Structure (SMILES): CC(=O)NCCCc1ccc(OC(C)=O)c(OC(C)=O)c1 [Compound 17]
- fold induction at 200 µM [1, 3]: 8.64
- NGF Concentration [1, 4]: 2.85 ng/well
- fold induction at 200 µM [2, 7]: 4.27
- NGF Concentration [2, 8]: 180.6 ng/well

Structure (SMILES): Br.CCNCCc1ccc(O)c(O)c1 [Compound 19, N-Ethyl-3,4-dihydroxyphenethylamine hydrobromide]
- fold induction at 200 µM [1]: 10.6
- NGF Concentration [1, 4]: 3.50 ng/well
- fold induction at 400 µM [2, 5]: 4.17
- NGF Concentration [2, 6]: 176.3 ng/well

Structure (SMILES): CCCCNCCc1ccc(O)c(O)c1 [Compound 21]
- fold induction at 200 µM [1]: 11.5
- NGF Concentration [1, 4]: 3.80 ng/well
- fold induction at 400 µM [2, 5]: 4.91
- NGF Concentration [2, 6]: 207.5 ng/well

Structure (SMILES): CNCCCc1ccc(O)c(O)c1 [Compound 26]
- fold induction at 200 µM [1, 3]: 8.61
- NGF Concentration [1, 4]: 2.84 ng/well
- fold induction at 400 µM [2, 5]: 4.17
- NGF Concentration [2, 6]: 176.5 ng/well

Structure (SMILES): CCCCNCCCc1ccc(O)c(O)c1 [Compound 29]
- fold induction at 200 µM [1, 3]: 8.73
- NGF Concentration [1, 4]: 2.88 ng/well
- fold induction at 400 µM [2, 5]: 4.26
- NGF Concentration [2, 6]: 180.3 ng/well

Structure (SMILES): CCCCN(C)CCc1ccc(O)c(O)c1 [Compound 32]
- fold induction at 400 µM [2, 5]: 4.82
- NGF Concentration [2, 6]: 203.8 ng/well

Structure (SMILES): CCCCN(C)CCc1ccc(OC(C)=O)c(OC(C)=O)c1 [Compound 33]
- fold induction at 400 µM [2, 5]: 4.74
- NGF Concentration [2, 6]: 200.6 ng/well

Structure (SMILES): CCOC(=O)CCc1ccc(O)c(O)c1 [Compound 35]
- fold induction at 200 µM [1, 9]: 5.82
- NGF Concentration [1, 10]: 1.98 ng/well
- fold induction at 200 µM [2, 11]: 4.63
- NGF Concentration [2, 12]: 200.1 ng/well

Structure (SMILES): CCCCOC(=O)CCc1ccc(O)c(O)c1 [Compound 37]
- fold induction at 200 µM [1, 9]: 5.44
- NGF Concentration [1, 10]: 1.85 ng/well
- fold induction at 200 µM [2, 11]: 4.83
- NGF Concentration [2, 12]: 208.5 ng/well

Structure (SMILES): CCOC(=O)Cc1ccc(O)c(O)c1 [Compound 39]
- fold induction at 200 µM [1, 9]: 5.24
- NGF Concentration [1, 10]: 1.78 ng/well
- fold induction at 200 µM [2, 11]: 4.86
- NGF Concentration [2, 12]: 210.1 ng/well

Structure (SMILES): CCOC(=O)CCCc1ccc(O)c(O)c1 [Compound 43]
- fold induction at 200 µM [1, 9]: 5.53
- NGF Concentration [1, 10]: 1.88 ng/well
- fold induction at 200 µM [2, 11]: 4.59
- NGF Concentration [2, 12]: 198.5 ng/well

Structure (SMILES): CCOC(=O)CCc1ccc(OC(C)=O)c(OC(C)=O)c1 [Compound 47, Ethyl 3,4-diacetoxyphenylpropionate]
- fold induction at 200 µM [1, 9]: 6.29
- NGF Concentration [1, 10]: 2.14 ng/well
- fold induction at 400 µM [2, 13]: 5.11
- NGF Concentration [2, 14]: 220.8 ng/well

Structure (SMILES): CCCCOC(=O)CCc1ccc(OC(C)=O)c(OC(C)=O)c1 [Compound 49]
- fold induction at 200 µM [1, 9]: 6.29
- NGF Concentration [1, 10]: 2.14 ng/well
- fold induction at 400 µM [2, 13]: 5.18
- NGF Concentration [2, 14]: 223.7 ng/well

Structure (SMILES): CCOC(=O)Cc1ccc(OC(C)=O)c(OC(C)=O)c1 [Compound 51]
- fold induction at 200 µM [1, 9]: 5.82
- NGF Concentration [1, 10]: 1.98 ng/well
- fold induction at 400 µM [2, 13]: 4.5
- NGF Concentration [2, 14]: 194.6 ng/well

Structure (SMILES): CCOC(=O)CCCc1ccc(OC(C)=O)c(OC(C)=O)c1 [Compound 55]
- fold induction at 200 µM [1, 9]: 5.82
- NGF Concentration [1, 10]: 1.98 ng/well
- fold induction at 400 µM [2, 13]: 4.39
- NGF Concentration [2, 14]: 189.7 ng/well

Structure (SMILES): NC(=O)CCc1ccc(O)c(O)c1 [Compound 58]
- fold induction at 200 µM [1, 9]: 5.53
- NGF Concentration [1, 10]: 1.88 ng/well
- fold induction at 200 µM [2, 11]: 5.32
- NGF Concentration [2, 12]: 230.0 ng/well

Structure (SMILES): CCNC(=O)CCc1ccc(O)c(O)c1 [Compound 60]
- fold induction at 200 µM [1, 9]: 5.41
- NGF Concentration [1, 10]: 1.84 ng/well
- fold induction at 200 µM [2, 11]: 6.95
- NGF Concentration [2, 12]: 300.4 ng/well

Structure (SMILES): CCNC(=O)Cc1ccc(O)c(O)c1 [Compound 64]
- fold induction at 200 µM [1, 9]: 5.32
- NGF Concentration [1, 10]: 1.81 ng/well
- fold induction at 200 µM [2, 11]: 4.65
- NGF Concentration [2, 12]: 200.8 ng/well

Structure (SMILES): CCNC(=O)CCCc1ccc(O)c(O)c1 [Compound 69]
- fold induction at 200 µM [1, 9]: 5.53
- NGF Concentration [1, 10]: 1.88 ng/well
- fold induction at 200 µM [2, 11]: 4.49
- NGF Concentration [2, 12]: 194.1 ng/well

Structure (SMILES): CCCCNC(=O)CCc1ccc(O)c(O)c1 [Compound 82]
- fold induction at 200 µM [2, 11]: 8.35
- NGF Concentration [2, 12]: 360.9 ng/well

Structure (SMILES): CCCCNC(=O)CCc1ccc(OC(C)=O)c(OC(C)=O)c1 [Compound 83]
- fold induction at 400 µM [2, 13]: 8.82
- NGF Concentration [2, 14]: 381.2 ng/well
